# Laboratory results as given in patent US7109338B2, “1,2-disubstituted 1,4-dihydro-4-oxoquinoline compounds” (priority 1999, dated 2006).
# Legend:
# HRV16 (11757) = assay: Anti-rhinovirus spectrum (MTT), HRV16; format: cell-based, human rhinovirus; parameters: Anti-Rhinovirus activity, HRV16: unit not given here; details: HRV16
# HRV1A (E28) = assay: Anti-rhinovirus activity (MTT), HRV1A; format: cell-based, human rhinovirus; parameters: Anti-Rhinovirus activity, HRV1A: unit not given here; details: for IC50 HRV 1A: HeLa (Ohio strain) cells, MTT method, 33° C.
# HRV39 (209) = assay: Anti-rhinovirus spectrum (MTT), HRV39; format: cell-based, human rhinovirus; parameters: Anti-Rhinovirus activity, HRV39: unit not given here; details: HRV39
# HeLa-S3 cells = assay: Cytotoxicity (MTT, without virus), HeLa-S3; details: HeLa-S3, no virus, incubated for 4 days
# [1] = tested on: human rhinovirus type 1B (HRV 1B, B632); assay: Anti-rhinovirus activity (MTT), HRV1B; format: cell-based; parameters: Anti-Rhinovirus activity, HRV1B: unit not given here
# HRV21 (47) = assay: Anti-rhinovirus spectrum (MTT), HRV21; format: cell-based, human rhinovirus; parameters: Anti-Rhinovirus activity, HRV21: unit not given here; details: HRV21
# [2] = tested on: echovirus type 11 (Echo 11, Gregory); assay: In vitro anti-picornavirus activity (MTT), Echo 11; format: cell-based; details: HeLa-S3 cells, MTT method, 37° C.
# HRV 89 (41617-Gallo) = assay: Anti-rhinovirus activity (MTT), HRV89; format: cell-based, human rhinovirus; parameters: Anti-Rhinovirus activity, HRV89: unit not given here
# HRV41 (56110) = assay: Anti-rhinovirus spectrum (MTT), HRV41; format: cell-based, human rhinovirus; parameters: Anti-Rhinovirus activity, HRV41: unit not given here; details: HRV41
# HRV29 (5582) = assay: Anti-rhinovirus spectrum (MTT), HRV29; format: cell-based, human rhinovirus; parameters: Anti-Rhinovirus activity, HRV29: unit not given here; details: HRV29
# HRV10 (204-CV14) = assay: Anti-rhinovirus spectrum (MTT), HRV10; format: cell-based, human rhinovirus; parameters: Anti-Rhinovirus activity, HRV10: unit not given here; details: HRV10
# HRV50(A2#58) = assay: Anti-rhinovirus spectrum (MTT), HRV50; format: cell-based, human rhinovirus; parameters: Anti-Rhinovirus activity, HRV50: unit not given here; details: HRV50
# HRV31 (41F) = assay: Anti-rhinovirus spectrum (MTT), HRV31; format: cell-based, human rhinovirus; parameters: Anti-Rhinovirus activity, HRV31: unit not given here; details: HRV31
# HRV5 = assay: Anti-rhinovirus spectrum (MTT), HRV5; format: cell-based, human rhinovirus; parameters: Anti-Rhinovirus activity, HRV5: unit not given here; details: HRV5
# HRV8(MRH) = assay: Anti-rhinovirus spectrum (MTT), HRV8; format: cell-based, human rhinovirus; parameters: Anti-Rhinovirus activity, HRV8: unit not given here; details: HRV8
# HRV32 (363) = assay: Anti-rhinovirus spectrum (MTT), HRV32; format: cell-based, human rhinovirus; parameters: Anti-Rhinovirus activity, HRV32: unit not given here; details: HRV32
# HRV36 (342H) = assay: Anti-rhinovirus spectrum (MTT), HRV36; format: cell-based, human rhinovirus; parameters: Anti-Rhinovirus activity, HRV36: unit not given here; details: HRV36
# HRV 2 (HGP) = assay: Anti-rhinovirus activity (MTT), HRV2; format: cell-based, human rhinovirus; parameters: Anti-Rhinovirus activity, HRV2: unit not given here
# HeLa (Ohio strain)cells = assay: Cytotoxicity (MTT, without virus), HeLa(Ohio); details: HeLa(Ohio), no virus, incubated for 4 days
# [3] = tested on: Poliovirus type 1 (Polio 1, Sabin); assay: microbe, parasite or virus in culture; format: cell-based
# [4] = tested on: clinical isolate (89229T); assay: microbe, parasite or virus in culture; format: cell-based, human rhinovirus; parameters: Anti-Rhinovirus activity, Clinical isolated strain: unit not given here; details: Clinical isolated strain
# HeLa cells = assay: Cytotoxicity (MTT, without virus), HeLa; details: HeLa, no virus, incubated for 4 days
# [5] = tested on: coxsackievirus type B4 (CB4,JVB); assay: In vitro anti-picornavirus activity (MTT), CB4; format: cell-based; details: HeLa cells, MTT method, 37° C.
# HRV14 (1059) = assay: Anti-rhinovirus activity (MTT), HRV14; format: cell-based, human rhinovirus; parameters: Anti-Rhinovirus activity, HRV14: unit not given here; details: for IC50 HRV 14: HeLa (Ohio strain) cells, MTT method, 33° C.
# HRV3(FEB) = assay: Anti-rhinovirus spectrum (MTT), HRV3; format: cell-based, human rhinovirus; parameters: Anti-Rhinovirus activity, HRV3: unit not given here; details: HRV3
# HRV33 (1200) = assay: Anti-rhinovirus spectrum (MTT), HRV33; format: cell-based, human rhinovirus; parameters: Anti-Rhinovirus activity, HRV33: unit not given here; details: HRV33
# HRV61 (6669-CV39) = assay: Anti-rhinovirus spectrum (MTT), HRV61; format: cell-based, human rhinovirus; parameters: Anti-Rhinovirus activity, HRV61: unit not given here; details: HRV61
# [6] = tested on: coxsackievirus type A7 (CA7); assay: In vitro anti-picornavirus activity (MTT), CA7; format: cell-based; details: HeLa-S3 cells, MTT method, 37° C.
# HRV13 (353) = assay: Anti-rhinovirus spectrum (MTT), HRV13; format: cell-based, human rhinovirus; parameters: Anti-Rhinovirus activity, HRV13: unit not given here; details: HRV13
# [7] = Cytotoxicity (MTT, without virus), HeLa(Ohio); details: human, HeLa (Ohio strain) cells (uninfected)
# [8] = HeLa (Ohio strain) cells, MTT method, 33° C.
Structure (SMILES),"Anti-Rhinovirus activity, HRV16 (HRV16 (11757))","Anti-Rhinovirus activity, HRV1A (HRV1A (E28))",IC50 HRV 1A (HRV1A (E28)) [µg/mL],"Anti-Rhinovirus activity, HRV39 (HRV39 (209))",Cytotoxicity CC50 HeLa-S3 (HeLa-S3 cells) [µg/mL],"Anti-Rhinovirus activity, HRV1B ([1]; HRV1B)","IC50 HRV1B [1, 8] [µg/mL]","Anti-Rhinovirus activity, HRV21 (HRV21 (47))",IC50 Echo 11 [2] [µg/mL],"Anti-Rhinovirus activity, HRV89 (HRV 89 (41617-Gallo); HRV89)",IC50 HRV89 (HRV 89 (41617-Gallo); [8]) [µg/mL],"Anti-Rhinovirus activity, HRV41 (HRV41 (56110))","Anti-Rhinovirus activity, HRV29 (HRV29 (5582))","Anti-Rhinovirus activity, HRV10 (HRV10 (204-CV14))","Anti-Rhinovirus activity, HRV50 (HRV50(A2#58))","Anti-Rhinovirus activity, HRV31 (HRV31 (41F))","Anti-Rhinovirus activity, HRV5 (HRV5)","Anti-Rhinovirus activity, HRV8 (HRV8(MRH))","Anti-Rhinovirus activity, HRV32 (HRV32 (363))","Anti-Rhinovirus activity, HRV36 (HRV36 (342H))",further results
CCn1c2c(c(=O)c3cc(C(C)C)ccc31)Cc1cc(OC)ccc1-2 [Compound B10],0.57,1.9,1.9,0.39,>2.5,0.25,0.25,0.16,0.14,0.33,0.33,0.007,0.44,0.41,0.10,0.15,0.24,0.20,0.36,0.17,"Anti-Rhinovirus activity, HRV2 (HRV 2 (HGP); HRV2): 0.16; IC50 HRV2 (HRV 2 (HGP); [8]): 0.16 µg/mL; Cytotoxicity CC50 HeLa(Ohio) (HeLa (Ohio strain)cells): >2.5 µg/mL; IC50 Polio 1 [3]: 0.17 µg/mL; Anti-Rhinovirus activity, Clinical isolated strain [4]: 0.75; Cytotoxicity CC50 HeLa (HeLa cells): >2.5 µg/mL; IC50 CB4 [5]: 0.57 µg/mL; Anti-Rhinovirus activity, HRV14 (HRV14 (1059)): 0.52; IC50 HRV 14 (HRV14 (1059)): 0.52 µg/mL; Anti-Rhinovirus activity, HRV3 (HRV3(FEB)): 0.48; Anti-Rhinovirus activity, HRV33 (HRV33 (1200)): 0.11; Anti-Rhinovirus activity, HRV61 (HRV61 (6669-CV39)): 0.24; IC50 CA7 [6]: 1.4 µg/mL; Anti-Rhinovirus activity, HRV13 (HRV13 (353)): 0.12"
"Cc1c(-c2ccccc2)n(-c2ccc(Cl)cc2)c2ccc(C(C)C)cc2c1=O [Compound A324, 1-(4-chlorophenyl)-2-phenyl-3-methyl-6-isopropyl-1,4-dihydro-4-oxoquinoline]",–,–,–,–,–,–,–,–,–,–,–,–,–,–,–,–,–,–,–,–,"IC50 ([1]; Human rhinovirus sp., HRV1B, HeLa (Ohio strain) cells, MTT method, 33° C., read-out: IC50 HRV1B): 0.53 µg/mL; IC50 (HRV 89 (41617-Gallo); Human rhinovirus sp., HRV89, HeLa (Ohio strain) cells, MTT method, 33° C., read-out: IC50 HRV89): 0.046 µg/mL; IC50 (HRV 2 (HGP); Human rhinovirus sp., HRV2, HeLa (Ohio strain) cells, MTT method, 33° C., read-out: IC50 HRV2): 0.12 µg/mL; melting point: 233 to 235 °C; CC50 at 4 days [7]: > 1 µg/mL"
CCn1c2c(c(=O)c3cc(C(C)C)ccc31)Cc1ccccc1-2.Cl [Compound B3],2.3,2.6,2.6,1.7,>4,0.30,0.30,0.20,0.35,0.57,0.57,0.20,1.5,1.8,0.20,0.29,0.36,0.46,0.61,0.30,"Anti-Rhinovirus activity, HRV2 (HRV 2 (HGP); HRV2): 0.54; IC50 HRV2 (HRV 2 (HGP); [8]): 0.54 µg/mL; Cytotoxicity CC50 HeLa(Ohio) (HeLa (Ohio strain)cells): >4 µg/mL; IC50 Polio 1 [3]: 0.72 µg/mL; Anti-Rhinovirus activity, Clinical isolated strain [4]: 1.9; Cytotoxicity CC50 HeLa (HeLa cells): >4 µg/mL; IC50 CB4 [5]: 0.82 µg/mL; Anti-Rhinovirus activity, HRV14 (HRV14 (1059)): 0.74; IC50 HRV 14 (HRV14 (1059)): 0.74 µg/mL; Anti-Rhinovirus activity, HRV3 (HRV3(FEB)): 2.9; Anti-Rhinovirus activity, HRV33 (HRV33 (1200)): 0.20; Anti-Rhinovirus activity, HRV61 (HRV61 (6669-CV39)): 0.80; IC50 CA7 [6]: 2.1 µg/mL; Anti-Rhinovirus activity, HRV13 (HRV13 (353)): 0.17"
CCn1c2c(c(=O)c3c(C(C)C)c(OC)ccc31)Cc1ccccc1-2 [Compound B7],0.98,1.7,1.7,0.38,>2.5,0.20,0.17,0.11,0.25,0.30,0.30,0.064,0.43,0.41,0.12,0.13,0.22,0.32,0.30,0.16,"Anti-Rhinovirus activity, HRV2 (HRV 2 (HGP); HRV2): 0.36; IC50 HRV2 (HRV 2 (HGP); [8]): 0.36 µg/mL; Cytotoxicity CC50 HeLa(Ohio) (HeLa (Ohio strain)cells): >2.5 µg/mL; IC50 Polio 1 [3]: 0.42 µg/mL; Anti-Rhinovirus activity, Clinical isolated strain [4]: 0.50; Cytotoxicity CC50 HeLa (HeLa cells): >2.5 µg/mL; IC50 CB4 [5]: 0.52 µg/mL; Anti-Rhinovirus activity, HRV14 (HRV14 (1059)): 0.49; IC50 HRV 14 (HRV14 (1059)): 0.49 µg/mL; Anti-Rhinovirus activity, HRV3 (HRV3(FEB)): 0.49; Anti-Rhinovirus activity, HRV33 (HRV33 (1200)): 0.097; Anti-Rhinovirus activity, HRV61 (HRV61 (6669-CV39)): 0.28; IC50 CA7 [6]: 1.4 µg/mL; Anti-Rhinovirus activity, HRV13 (HRV13 (353)): 0.13"
CCn1c2c(c(=O)c3cc(C(C)C)ccc31)Cc1cc(OC)c(C)cc1-2 [Compound B20],0.44,>2.5,>2.5,0.35,>2.5,0.23,0.23,0.14,0.28,0.18,0.18,0.12,0.44,0.42,0.18,0.18,0.23,0.29,0.29,0.20,"Anti-Rhinovirus activity, HRV2 (HRV 2 (HGP); HRV2): 0.19; IC50 HRV2 (HRV 2 (HGP); [8]): 0.19 µg/mL; Cytotoxicity CC50 HeLa(Ohio) (HeLa (Ohio strain)cells): >2.5 µg/mL; IC50 Polio 1 [3]: 0.40 µg/mL; Anti-Rhinovirus activity, Clinical isolated strain [4]: 0.49; Cytotoxicity CC50 HeLa (HeLa cells): >2.5 µg/mL; IC50 CB4 [5]: 0.60 µg/mL; Anti-Rhinovirus activity, HRV14 (HRV14 (1059)): 0.51; IC50 HRV 14 (HRV14 (1059)): 0.51 µg/mL; Anti-Rhinovirus activity, HRV3 (HRV3(FEB)): 0.50; Anti-Rhinovirus activity, HRV33 (HRV33 (1200)): 0.097; Anti-Rhinovirus activity, HRV61 (HRV61 (6669-CV39)): 0.31; IC50 CA7 [6]: 1.4 µg/mL; Anti-Rhinovirus activity, HRV13 (HRV13 (353)): 0.13"
